Measured values taken from patent US11000710B2, “Composition and method for the generation of chlorine dioxide from the oxidative consumption of biomolecules” (priority 2009, dated 2021).

Experiment: Level of HClO2 and ClO2^• producible from ClO2^− as a function of pH
Assay type: physicochemical

[O][Cl+][O-] [ClO2^•, chlorine dioxide]
total ClO2^• producible, maximum percentage of total oxyhalogen oxidant (pH 4.50): ≤ 0.32% | total ClO2^• producible, maximum percentage of total oxyhalogen oxidant (pH 7.00): ≤ 0.0010%

[O-][Cl+]O [HClO2]
level of HClO2 generated, of total available oxyhalogen oxidant (pH 4.50): 0.64% | level of HClO2 generated, of total available oxyhalogen oxidant (pH 7.00): 0.0020%
